{"source": "ChEMBL document CHEMBL3044894", "about": "“QSAR studies on a number of pyrrolidin-2-one antiarrhythmic arylpiperazinyls” (2012)", "test_system": "Rattus norvegicus", "assay": "Antiarrhythmic activity in anaesthetized rat assessed as inhibition of adrenaline-induced arrhythmia", "type": "functional, Heart", "data": [{"compound": "CCOc1ccccc1N1CCN(CC(O)CN2CCC(c3ccccc3)(c3ccccc3)C2=O)CC1", "note": "(stereo not drawn)", "values": [{"measurement": "pED50", "value": 2.66}]}, {"compound": "COc1ccccc1N1CCN(CC(O)CN2CCC(c3ccccc3)(c3ccccc3)C2=O)CC1", "note": "(stereo not drawn)", "values": [{"measurement": "pED50", "value": 2.37}]}, {"compound": "O=C1N(CC(O)CN2CCN(c3ccccc3C(F)(F)F)CC2)CCC1(c1ccccc1)c1ccccc1", "note": "(stereo not drawn)", "values": [{"measurement": "pED50", "value": 2.13}]}, {"compound": "Cc1ccccc1N1CCN(CC(O)CN2CCC(c3ccccc3)(c3ccccc3)C2=O)CC1", "note": "(stereo not drawn)", "values": [{"measurement": "pED50", "value": 2.53}]}, {"compound": "O=C1N(CC(O)CN2CCN(c3ccccc3)CC2)CCC1(c1ccccc1)c1ccccc1", "note": "(stereo not drawn)", "values": [{"measurement": "pED50", "value": 2.38}]}, {"compound": "COc1ccc(Cl)cc1N1CCN(CC(O)CN2CCCC2=O)CC1", "note": "(stereo not drawn)", "values": [{"measurement": "pED50", "value": 1.48}]}, {"compound": "CCNC(=O)OC(CN1CCN(c2ccccc2OC)CC1)CN1CCCC1=O", "note": "(stereo not drawn)", "values": [{"measurement": "pED50", "value": 1.92}]}, {"compound": "COc1ccccc1N1CCN(CC(CN2CCCC2=O)OC(=O)NC(C)C)CC1", "note": "(stereo not drawn)", "values": [{"measurement": "pED50", "value": 2.19}]}, {"compound": "CCCNC(=O)OC(CN1CCN(c2ccccc2OC)CC1)CN1CCCC1=O", "note": "(stereo not drawn)", "values": [{"measurement": "pED50", "value": 1.52}]}, {"compound": "CCCC(=O)OC(CN1CCN(c2ccccc2OC(C)C)CC1)CN1CCCC1=O", "note": "(stereo not drawn)", "values": [{"measurement": "pED50", "value": 1.77}]}, {"compound": "CC(C)NC(=O)OC(CN1CCN(c2ccccc2Cl)CC1)CN1CCCC1=O", "note": "(stereo not drawn)", "values": [{"measurement": "pED50", "value": 2}]}, {"compound": "CCNC(=O)OC(CN1CCN(c2ccccc2)CC1)CN1CCCC1=O", "note": "(stereo not drawn)", "values": [{"measurement": "pED50", "value": 1.66}]}, {"compound": "CC(C)C(=O)OC(CN1CCN(c2ccccc2)CC1)CN1CCCC1=O", "note": "(stereo not drawn)", "values": [{"measurement": "pED50", "value": 1.88}]}, {"compound": "O=C(NCc1ccccc1)OC(CN1CCN(c2ccccc2)CC1)CN1CCCC1=O", "note": "(stereo not drawn)", "values": [{"measurement": "pED50", "value": 1.47}]}, {"compound": "CCCNC(=O)OC(CN1CCN(c2ccccc2)CC1)CN1CCCC1=O", "note": "(stereo not drawn)", "values": [{"measurement": "pED50", "value": 1.52}]}, {"compound": "O=C1CCCN1CCCN1CCN(c2ccccc2O)CC1", "values": [{"measurement": "pED50", "value": 1.36}]}, {"compound": "O=C1CCCN1CCCN1CCN(c2ccccc2)CC1", "values": [{"measurement": "pED50", "value": 2.01}]}, {"compound": "COc1ccccc1N1CCN(CCCN2CCCC2=O)CC1", "values": [{"measurement": "pED50", "value": 1.79}]}, {"compound": "O=C1CCCN1CCCN1CCN(c2ccccc2Cl)CC1", "values": [{"measurement": "pED50", "value": 1.8}]}, {"compound": "O=C1CCCN1CCCN1CCN(c2ccccc2F)CC1", "values": [{"measurement": "pED50", "value": 1.54}]}, {"compound": "CCOc1ccccc1N1CCN(CCCN2CCCC2=O)CC1", "values": [{"measurement": "pED50", "value": 2.52}]}, {"compound": "O=C1CCCN1CCCN1CCN(c2cccc(C(F)(F)F)c2)CC1", "values": [{"measurement": "pED50", "value": 1.45}]}, {"compound": "COc1ccccc1N1CCN(CC(O)CN2CCCC2=O)CC1", "note": "(stereo not drawn)", "values": [{"measurement": "pED50", "value": 1.43}]}, {"compound": "O=C1CCCN1CC(O)CN1CCN(c2ccc(Cl)cc2)CC1", "note": "(stereo not drawn)", "values": [{"measurement": "pED50", "value": 1.4}]}, {"compound": "O=C1CCCN1CC(O)CN1CCN(c2ccccc2F)CC1", "note": "(stereo not drawn)", "values": [{"measurement": "pED50", "value": 1.79}]}, {"compound": "COc1cccc(N2CCN(CC(O)CN3CCCC3=O)CC2)c1", "note": "(stereo not drawn)", "values": [{"measurement": "pED50", "value": 1.64}]}, {"compound": "CCOc1ccccc1N1CCN(CC(O)CN2CCCC2=O)CC1", "note": "(stereo not drawn)", "values": [{"measurement": "pED50", "value": 1.97}]}, {"compound": "Cc1ccccc1N1CCN(CC(O)CN2CCCC2=O)CC1", "note": "(stereo not drawn)", "values": [{"measurement": "pED50", "value": 1.55}]}, {"compound": "O=C1CCCN1CC(O)CN1CCN(c2ccccc2O)CC1", "note": "(stereo not drawn)", "values": [{"measurement": "pED50", "value": 2.23}]}, {"compound": "CC(C)Oc1ccccc1N1CCN(CC(O)CN2CCCC2=O)CC1", "note": "(stereo not drawn)", "values": [{"measurement": "pED50", "value": 1.77}]}, {"compound": "O=C1CCCN1CC(O)CN1CCN(c2ccccc2C(F)(F)F)CC1", "note": "(stereo not drawn)", "values": [{"measurement": "pED50", "value": 1.31}]}, {"compound": "O=C1CCCN1CC(O)CN1CCN(c2ccc(F)cc2F)CC1", "note": "(stereo not drawn)", "values": [{"measurement": "pED50", "value": 1.54}]}, {"compound": "O=C1CCCN1CC(O)CN1CCN(c2ccccc2)CC1", "note": "(stereo not drawn)", "values": [{"measurement": "pED50", "value": 1.6}]}]}
